The results in this text go back to patent publication US9624217B2, “Dihydropyrrolopyridine inhibitors of ROR-gamma” (Vitae Pharmaceuticals, Inc., priority 2014, dated 2017).

The target of one assay is full-length RORγt (Homo sapiens (Human), UniProt P51449). Nature of the assay: RORγt 5×RORE Assay in Jurkat Cells (Assay 2). To be noted: secreted Nanoluc luciferase 5×RORE reporter, 16-18 hrs, read-out: RORγt5X IC50 Range. In kind it is cell-based. The protocol: [formula] RORγt 5×RORE Assay in Jurkat Cells (Assay 2)
Compounds of the present invention were tested for RORγ inverse agonist activity in a cell-based, transcriptional activity assay. […] (Promega, Cat. #N1021) using KpnI and HindIII restriction sites. […] Luciferase activity in the conditioned supernatants was determined with NanoGlo® assay reagents (Promega, Cat. #N1130).

Assay [1] concerns the target recombinant RORγ Ligand Binding Domain (LBD) (Homo sapiens (Human), UniProt P51449). The experiment in a line: Radio-Ligand RORγ Binding Assay (Assay 1). Conditions: SPA competition with 25-hydroxy [26,27-3H]-cholesterol, cell-free; read-out: RORγ Binding Ki Range. The protocol: Radio-Ligand RORγ Binding Assay (Assay 1)
Compounds of the present invention were tested for ability to bind to RORγ in a cell-free competition assay with commercially available radio-ligand (RL), 25-hydroxy [26,27-^3H]-cholesterol (PerkinElmer, Cat. #NET674250UC), for a ligand binding site on a recombinant RORγ Ligand Binding Domain (LBD) protein expressed as a 6×His-Glutathione-S-Transferase (GST) fusion. […] The plate was shaken at 700 rpm for 20 min and incubated for 10 min at rt, after which 40 μL of poly-Lys YSi SPA beads (PerkinElmer, Cat. #RPNQ0010) were added to achieve 50 μg of the beads per well. The plate was incubated on an orbital shaker for 20 min and then for 10 min without agitation at rt. SPA signal for tritium beta radiation was registered on PerkinElmer Microbeta plate reader. […] The percent inhibition vs. concentration data were fit into a four-parameter model, and IC50 values were calculated from the fit as the concentrations corresponding to the inflection points on the dose-response curves.

Sequence of recombinant RORγ Ligand Binding Domain (LBD) (P51449 269-508): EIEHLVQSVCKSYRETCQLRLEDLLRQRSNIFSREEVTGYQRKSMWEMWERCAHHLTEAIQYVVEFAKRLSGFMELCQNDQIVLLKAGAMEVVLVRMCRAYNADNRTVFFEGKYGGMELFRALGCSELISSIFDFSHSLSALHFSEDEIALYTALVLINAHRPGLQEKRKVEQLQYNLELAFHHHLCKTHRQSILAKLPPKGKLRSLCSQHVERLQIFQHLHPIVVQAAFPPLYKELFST
Sequence of full-length RORγt (P51449 other isoform, or with tags, fused parts or gaps): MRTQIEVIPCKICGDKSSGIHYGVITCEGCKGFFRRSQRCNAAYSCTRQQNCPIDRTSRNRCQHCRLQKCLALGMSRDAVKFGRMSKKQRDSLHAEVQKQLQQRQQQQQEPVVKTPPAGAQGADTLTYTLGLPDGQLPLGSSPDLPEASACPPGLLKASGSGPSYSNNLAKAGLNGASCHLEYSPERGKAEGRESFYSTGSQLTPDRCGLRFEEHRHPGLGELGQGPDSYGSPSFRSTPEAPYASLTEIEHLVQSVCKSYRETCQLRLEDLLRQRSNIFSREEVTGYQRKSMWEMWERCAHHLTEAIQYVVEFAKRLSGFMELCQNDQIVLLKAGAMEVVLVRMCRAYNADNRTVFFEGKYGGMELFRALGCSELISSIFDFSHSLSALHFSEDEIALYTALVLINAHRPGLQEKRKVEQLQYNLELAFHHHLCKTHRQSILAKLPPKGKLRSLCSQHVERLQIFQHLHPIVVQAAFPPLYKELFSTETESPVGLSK

With `CCS(=O)(=O)c1ccc(CNC(=O)c2cnc3c(c2)CN(CC2CCC(F)(F)CC2)[C@H]3C(C)C)nc1` [Compound 43], at full-length RORγt, the IC50 (in general, the point on the concentration scale where inhibition reaches its midpoint) is over 1000 nM. Further, the Ki (commonly the equilibrium dissociation constant of an inhibitor or competing ligand from its target) in assay [1] was under 100 nM.
In the same order, the values of `CCS(=O)(=O)c1ccc(CNC(=O)c2cnc3c(c2)CN(C[C@H]2CC[C@H](OC)CC2)[C@H]3C(C)C)cc1` [Compound 45] are under 100 nM and under 100 nM.
In the same order, the values of `CCS(=O)(=O)c1ccc(CNC(=O)c2cnc3c(c2)CN(C(=O)OC(C)(C)C)[C@H]3C(C)C)nc1` [Compound 46, Tert-butyl (S)-3-(((5-(ethylsulfonyl)pyridin-2-yl)methyl)carbamoyl)-7-isopropyl-5,7-dihydro-6H-pyrrolo[3,4-b]pyridine-6-carboxylate] are over 1000 nM and under 100 nM.
Taken in the same sequence, the figures for `CCS(=O)(=O)c1ccc(CNC(=O)c2cnc3c(c2)CN(CC2CCN(CC(F)(F)F)CC2)[C@H]3C(C)C)cc1` [Compound 49] were under 100 nM and under 100 nM.
On to `CCS(=O)(=O)c1ccc(CNC(=O)c2cnc3c(c2)CN(Cc2ccc4c(c2)OC(F)(F)O4)[C@H]3C(C)C)nc1` [Compound 54], for which the IC50 on full-length RORγt is under 100 nM. The Ki in assay [1] was under 100 nM.
As for `CCS(=O)(=O)c1ccc(CC(=O)Nc2cnc3c(c2)CN(C[C@H]2CC[C@H](C(F)(F)F)CC2)[C@H]3C(C)C)cc1` [Compound 55], the IC50 on full-length RORγt was under 100 nM. Moreover, in assay [1], the Ki was under 100 nM.
As for `CCS(=O)(=O)c1ccc(CC(=O)Nc2cnc3c(c2)CN(Cc2ccc(C#N)cc2)[C@H]3C(C)C)cc1` [Compound 57], the IC50 at full-length RORγt is under 100 nM. Further, the Ki in assay [1] was under 100 nM.
`CCS(=O)(=O)c1ccc(CC(=O)Nc2cnc3c(c2)CN(Cc2ccc(C(F)(F)F)cc2)[C@H]3C(C)C)cc1` [Compound 58]: the IC50 at full-length RORγt was under 100 nM. Further, the Ki in assay [1] is under 100 nM.
With `CC(C)[C@H]1c2ncc(C(=O)NCC3CCN(S(C)(=O)=O)CC3)cc2CN1Cc1ccc(C(F)(F)F)cc1` [Compound 63], the IC50 at full-length RORγt is 100 to 1000 nM. In addition, the Ki in assay [1] was under 100 nM.
In the same order, the values of `CC(C)[C@H]1c2ncc(C(=O)NCc3ccc(C#N)cc3)cc2CN1Cc1ccc(C(F)(F)F)cc1` [Compound 64] are 100 to 1000 nM and under 100 nM.
Taken in the same sequence, the figures for `CNS(=O)(=O)c1ccc(CNC(=O)c2cnc3c(c2)CN(Cc2ccc(C(F)(F)F)cc2)[C@H]3C(C)C)cc1` [Compound 67] were under 100 nM and under 100 nM.
For `CCS(=O)(=O)N1CCC(CNC(=O)c2cnc3c(c2)CN(Cc2ccc(C(F)(F)F)cc2)[C@H]3C(C)C)CC1` [Compound 109], the IC50 at full-length RORγt is over 1000 nM. Also, the Ki in assay [1] is under 100 nM.
As for `CC(C)[C@H]1c2ncc(C(=O)NC[C@H]3CC[C@H](CC(=O)O)CC3)cc2CN1Cc1ccc(C(F)(F)F)cc1` [Compound 139], the IC50 at full-length RORγt was 100 to 1000 nM. Further, the Ki in assay [1] was under 100 nM.
Taken in the same sequence, the figures for `CCS(=O)(=O)c1cnc(CNC(=O)c2cnc3c(c2)CN(Cc2ccc(C(F)(F)F)cc2)[C@H]3C(C)C)c(C)c1` [Compound 142] were under 100 nM and under 100 nM.
Take `CCS(=O)(=O)c1cnc(CNC(=O)c2cnc3c(c2)CN(Cc2ccc(C(F)(F)F)cc2)[C@H]3C(C)C)c(F)c1` [Compound 144]: the IC50 at full-length RORγt was under 100 nM. Moreover, the inhibition constant Ki in assay [1] is under 100 nM.
With `CC(C)[C@H]1c2ncc(C(=O)N[C@@H](CO)c3ccc(C#N)cc3)cc2CN1Cc1ccc(C(F)(F)F)cc1` [Compound 149], on full-length RORγt, the IC50 lay within 100 to 1000 nM. Besides, the Ki in assay [1] was under 100 nM.
Taken in the same sequence, the figures for `CC(C)[C@H]1c2ncc(C(=O)NCc3ccc(C#N)cn3)cc2CN1Cc1ccc(C(F)(F)F)cc1` [Compound 155] were over 1000 nM and 100 to 1000 nM.
